# Entries after “also recorded” stand apart in the source; their conditions may differ.
# Experiments:
# [1] = test system: WIBR3 OCT4-GFP naïve hPSCs; assay: Blastoid formation (cavitation) from 5i/L/A naïve hPSCs in Aggrewells; type: cell-based, human; conditions: for rate of cavitation on omission of the component from the blastoid media: component omitted/removed (Conditions 2-4), D7
# Experimental: Naïve hPSCs were dissociated with Accutase for 5 minutes at 37° C. Single cell dissociate naïve stem cells and inactivate accutase enzymes with fibroblast medium. Centrifuge this suspension 1000 rpm for 5 minutes. Remove supernatant and wash once with DMEM/F12, centrifuge 1000 rpm for 5 minutes. Aspirate supernatant and resuspend in 2 mL of 5i/L/A medium. Remove iMEFs from the cell suspension by incubation on gelatin-coated plates for 30-45 minutes at 37° C. 5% CO2. Collect cells and count cells to plate 100,000 cells per 24 well Aggrewell (StemCell Technologies) well. Coat the aggrewells with Anti-adherence solution (StemCell Technologies) for 10 minutes at room temperature. Wash wells once with DMEM/F12, then add 1 mL of 5i/L/A medium. Add naïve stem cells to Aggrewells, 100,000 cells per 500 μL, total medium should be 1.5 mL per well. Centrifuge the plate 1000 rpm for 2 minutes for equal distribution of cell number per microwell. Incubate at 37° C. 5% CO2 and 5% 02 for one day. […]
# Cavitation rate was determined by counting individual aggregates at 7 days of blastoid growth in at least 3 24-well wells per condition. Tile scan images of the entire well were stitched together and aggregates vs. cavitated aggregates were manually counted in ImageJ. […] Significance determined by a 1-way ANOVA with multiple comparisons. *p<0.05, **p<0.01.
# Blastoid size was determined with ImageJ software by drawing a circle around the entire blastoid, and diameters determined by a single line drawn across the widest apparent part of the blastoid (day 7 n=1901; day 8 n=18). Inner cell mass size was determined by utilizing the OCT4-GFP channel and manually drawing around the brightest region of GFP+ areas (control n=152 blastoids; —CHIR n=130). Significance determined with Welch's t-test, ****p<0.0001.
# [2] = test system: 3D-cultured human blastoids (WIBR3 OCT4-GFP background); assay: Post implantation WNT modulation of 3D-cultured blastoids; type: cell-based; conditions: for OCT4-GFP reporter area (ratio of OCT4-GFP area: total blastoid area; EPI compartment) / OCT4-GFP signal intensity / invasive trophoblast projections / overall blastoid size (area): 2 μM in N2B27+E2, D8 to D14, 3D ECM, analysed at D14, vs control; for CTB shell: 2 μM, 6 days of treatment, D14 of 3D culture
# Description: Blastoids can be transferred on either day 7 or day 8 of growth. Due to the inaccessibility of commercially available extracellular matrix products during the experimentation phases of this project, multiple matrices were utilized in this study-hESC qualified growth factor-reduced Matrigel (Corning), hESC qualified growth factor reduced Geltrex (Gibco), and Cultrex UltriMatrix reduced growth factor basement membrane extract (R&D, BME001). […] Matrices were thawed on ice and kept cold until crosslinking was desired. Matrices mixed together (Matrigel/geltrex) were mixed following thawing and plated into ibidi microwells (120 μL/well) (ibidi, 80826) or alternatively 96 well plates (40 μL/well). Matrices were solidified at 37° C. for 30 minutes. Wash matrices 2 times with DMEM/F12 before adding blastoids. Add N2B27+10 nM estradiol without antibiotics to each well. Plate desired numbers of blastoids to each well (3-5 in an ibidi microwell, 1-2 in a 96 well plate). Place the plate in the incubator (37° C., 5% CO2, 5% 02) for 24 hours. Replace media daily with N2B27+10 nM estradiol without antibiotics. If blastoids are added at 7 days, the following day they may be loosely attached. Wait approximately 28-30 hours following seeding to ensure blastoids are well anchored before changing medium. Polar TE side attaches and the ICM expands compared to the day before when properly attached. On the following day (day 9) the TE collapses. Migratory EVT emerge at day 13. Maintaining proper pH is important for blastoids post implantation, the medium should be at pH=7.2-7.4 by pre-equilibration in the incubator or use freshly made N2B27 that has not oxidized too excessively (media should be pink/orange in color, never purple). WIBR3 OCT4-GFP blastoids were grown to 7 days in blastoid generating conditions (see above) and blastoids with localized single ICM, continuous trophectoderm, and with a round blastocoel cavity were chosen by hand and plated upon a pre-formed 3D matrix (Cultrex UltriMatrix) formed with a 96 well plate (40 μL of Cultrex per well). 2 blastoids per well were plated among 10 wells for each condition in N2B27+1 mM Na Pyruvate+10 nM Estradiol (E2). Blastoids were allowed to attach for approximately 24-30 hours in the incubator (5% CO2, 5% O2, 37° C., 100% humidity). When blastoids attached, TE collapsed, and ICM expanded, medium was changed to N2B27+1 mM Na Pyruvate+10 nM E2+2 μM XAV939 or +2 μM CHIR99021. Media was changed daily and grown in a 37° C., 5% CO2, 5% O2 incubator. Blastoids were fixed in 4% paraformaldehyde as described above on day 14 of total blastoid growth.
Compound,TE expansion (ICM:TE ratio based on OCT4-GFP reporter activity) on omission of the component ([1]; component omitted (Condition 2)),rate of cavitation on omission of the component from the blastoid media [1],OCT4-GFP reporter area (ratio of OCT4-GFP area: total blastoid area; EPI compartment) [2],OCT4-GFP signal intensity [2],invasive trophoblast projections [2],overall blastoid size (area) [2],CTB shell [2]
Cc1c[nH]c(-c2cnc(NCCNc3ccc(C#N)cn3)nc2-c2ccc(Cl)cc2Cl)n1 [CHIR99021],specifically promotes TE expansion,enhanced the rate of cavitation,reduced ratio of OCT4-GFP+ cells,diminished intensity of OCT4-GFP reporter activity,significantly fewer invasive trophoblast projections,larger; also recorded: increased,expansion of the CTB shell
Oc1nc(-c2ccc(C(F)(F)F)cc2)nc2c1CSCC2 [XAV939],,,notable expansion,increase in signal intensity,significantly fewer invasive trophoblast projections,reduced,reduction of the CTB shell
LIF: recombinant human leukemia inhibitory factor (PeproTech),,without adversely affecting the rate of cavitation,,,,,

# Source: US20240352412A1, “METHODS AND SYSTEMS FOR EXTENDED CULTURE OF HUMAN BLASTOIDS TO POST-IMPLANTATION STAGES ON 3D MATRICES” (Washington University, priority 2023, published 2024)
